Earlier results, collected in EP4582084A1, “CRYSTAL FORM OF KETOAMIDE DERIVATIVE AND PREPARATION METHOD THEREFOR” (Guangdong Raynovent Biotech Co., Ltd., priority 2022, dated 2024).

Test system: novel coronavirus
Details: in vitro, preclinical trials

For Cn1cnc(Cn2c(=O)[nH]/c(=N\c3cc4cn(C)nc4cc3Cl)n(Cc3cc(F)c(F)cc3F)c2=O)n1 [S-217622], the EC50 is given as 370 nM.
